Measurements reported in patent EP0211584A1, “Antihypertensive agents” (AMERICAN HOME PRODUCTS CORPORATION, priority 1985, dated 1987).

Assays:
[1] = test system: rabbit aortic smooth muscle; test: Ca+2 antagonism: relaxation of KCl-depolarized rabbit aortic smooth muscle strips; conditions: Oryctolagus cuniculus, 20 min, compound 1 x 10^-5M; 100mM KCl contraction; 20 minutes after addition; mean of two experiments; read-out: P.R. (percent relaxation of aortic tissue)
Procedure: The composition of PSS was as follows (mM): NaCl 112,KCI 5, NaHCO3 25 KH2PO4 1, MgSO4 1.2, CaCl2 2.5, dextrose 10. The lower end of each tissue strip was attached to a fixed post and the upper end to a Statham UC-4 transducer. Changes in force development were recorded on a Beckman Dynograph Polygraphic Recorder.
Following equilibration, the muscles were contracted in a depolarizing solution of PSS in which 100mM KCI was substituted for an equimolar concentration of NaCI. Following attainment of steady- state isometric force (20 min.), the test compound was added to afford a final concentration of 1 x 10^-5M. The inhibitory effect, expressed as percent relaxation, was determined from the mean of two experiments twenty minutes after the addition of the compound being tested.
(§1) The following examples illustrate the preparation of a representative number of compounds of this invention. After each example, the Ca+2 antagonist activity of the compound is presented in terms of percent relaxation of aortic tissue (P.R.) at 10-^5M concentration. […] Inhibition of super- precipitation (Antag. of Actin-Myosin interaction) is expressed as percent inhibition (mean ± standard error of the mean for at least 3 separate experiments) at a compound concentration. In the same manner, inhibition of myosin light chain phosphorylation (Antag. of MLCP) is expressed as a percent inhibition at a compound concentration. Similarly, the antihypertensive activity is reported in terms of millimetres mercury (mmHg) systolic blood pressure (B.P.) reduction at the stated time post 50 mg/kg oral dosing or other dosing as indicated.

[2] = test system: arterial actin-myosin interactions; test: Inhibition of superprecipitation (antagonism of actin-myosin interaction), Silver et al.; type: biochemical; conditions: six minute time-point
Procedure: . The data reported herein was obtained at a six minute time-point rather than the 1.5, 5 and 12 minute time points indicated in the superprecipita- tion assay of the Silver et al paper.
as §1

[3] = test system: isolated paced intact rabbit atria; test: Cardiac depressant (negative inotropic) effect in isolated paced rabbit atria; conditions: Oryctolagus cuniculus; rabbit atria paced at 3Hz, 30°C, cumulative dosing; read-out: IC25 (concentration which produces 25% inhibition of isometric force)
Procedure: The potential for detrimental cardiac depressant (negative inotropic) effects of the compounds of this invention was assessed in isolated paced intact rabbit atria. […] Muscles (N=5-9/compound) were stimulated at a frequency of 3Hz with a WPI stimulator for a 60 minute equilibration period. Changes in isometric force were recorded as described for the aortic smooth muscle experiments, supra. […]

[4] = molecular target: Ca^+2-calmodulin dependent myosin light chain phosphorylation (Bos taurus, UniProt Q28824); test: Inhibition of myosin light chain phosphorylation (MLCP), Silver et al.; type: biochemical; conditions: read-out: Antag. of MLCP (percent inhibition of myosin light chain phosphorylation)
Procedure: The data reported herein was obtained at a six minute time-point rather than the 1.5, 5 and 12 minute time points indicated in the superprecipita- tion assay of the Silver et al paper.
as §1

[5] = test system: spontaneously hypertensive rats; test: Hypotensive effect: systolic blood pressure of spontaneously hypertensive rats; type: in vivo; conditions: mmHg per method
Procedure: The hypotensive in vivo effect of the compounds of this invention was determined by measuring changes in the systolic blood pressure of spontaneously hypertensive rats with a Decker Caudal Plethysmograph. The compound being tested was administered to a group of 4 rats and their systolic pressure was determined prior to and at 1.5 and 4 hours after compound administration. Initial testing was done by oral administration of the compound. Results (mmHg) are expressed as decreases in systolic blood pressure.
as §1

[6] = dose 50mg/kg oral, at 1.5 hours

inhibition at 100 µM [4] [%]	inhibition at 50 µM [4] [%]	inhibition at 25 µM [4] [%]	Compound	inhibition at 10 µM [1] [%]	Antag. of Actin-Myosin (percent inhibition of superprecipitation) ([2]; 100µM) [%]	IC25 [3] [µM]	B.P. (systolic blood pressure reduction) ([5]; dose 25mg/kg oral, at 4 hours) [mm]	Antag. of Actin-Myosin (percent inhibition of superprecipitation) ([2]; 50µM) [%]	B.P. (systolic blood pressure reduction) ([5]; dose 10mg/kg oral, at 1.5 hours) [mm]	B.P. (systolic blood pressure reduction) ([5]; dose 10mg/kg oral, at 4 hours) [mm]	Antag. of Actin-Myosin (percent inhibition of superprecipitation) ([2]; 25µM) [%]	B.P. (systolic blood pressure reduction) [5, 6] [mm]	B.P. (systolic blood pressure reduction) ([5]; dose 50mg/kg oral, at 4 hours) [mm]
77			CC1=C(C(=O)OCCCCOc2ccccc2)C(c2c(F)c(F)c(F)c(F)c2F)C2=C(CNCC2=O)N1 (stereo not shown) [Example 21, 1,4,5,6,7,8-Hexahydro-2-methyl-5-oxo-4-(pentafluorophenyl)-1,7-naphthyridine-3-carboxylic acid 4-phenoxvbutvl ester]	61	80	1	-49						
70	56		CO[C@@H](COC(=O)C1=C(C)NC2=C(C(=O)CNC2)C1c1c(F)c(F)c(F)c(F)c1F)c1ccccc1 (stereo partly drawn) [Example 6, 1,4,5,6,7,8,-Hexahydro-2-methyl-5-oxo-4-(pentafluorophenyl)-1,7-naphthyridine-3-carboxylic acid (R)-2-methoxy-2-phenylethyl ester]	71	74	0.6		64	-56	-49			
70		58	CC1=C(C(=O)OC(C)COc2ccccc2)C(c2c(F)c(F)c(F)c(F)c2F)C2=C(CNCC2=O)N1 (stereo not shown) [Example 13, 1,4,5,6,7,8-Hexahydro-2-methyl-5-oxo-4-(pentafluorophenyl)-1,7-naphthylidine-3-carboxylic acid 1-methvl-2-ahenoxvethvl ester]	46	78	10					61	-35	-60
76 ± 2	66	38 ± 3	COC(COC(=O)C1=C(C)NC2=C(C(=O)CNC2)C1c1cccc(Cl)c1Cl)c1ccccc1 (stereo not shown) [Example 1, 4-(2,3-Dichloroohenyl)-1,4,5,6,7,8-hexahydro-2-methyl-5-oxo-1,7-naphthyridine-3-carboxylic acid 2-methoxy-2-phenylethyl ester]	32	83± 3	10		75±3			43± 2	-53	-30
